From patent publication US9950062B2, “Compounds and compositions as TLR activity modulators” (priority 2009, dated 2018)

Key:
[1] = Binding to aluminum hydroxide adjuvant, HPLC of supernatant; format: physicochemical; settings: 100 μg/dose, room temperature and 37° C., 1, 5 and 24 hours
Procedure: The binding of the compounds of Formula (I) provided herein to aluminum-containing adjuvants at pH 9 and pH 6.5 was evaluated using HPLC to monitor the presence of the compound of Formula (I) in the supernatant.
(§1) Compound 1 (0.5 mg/mL) was dissolved in 10 mM NaOH and added to aluminum hydroxide adjuvant (2 mg/mL) resulting in a 100 μg/dose formulation. The supernatant was evaluated with HPLC using a ballistic gradient (from 10% CH3CN-0.1% TFA to 100% CH3CN-0.1% TFA in 2.5 minutes) on a C18 ([…]×4.6 mm) ACE column at 45° C. To evaluate the effect of supernatant temperature and incubation time on binding, the supernatant was evaluated at a supernatant temperature of room temperature and at 37° C. after 1 hour, 5 hours and 24 hours. A control without aluminum hydroxide was also evaluated.
as §1, with “Compound 5 (1” for “Compound 1 (0.5”, “to aluminium” for “to aluminum”
as §1, with “to aluminium” for “to aluminum”, “formulation. The pH of the solution was adjusted to pH 6.5 using HCl.” for “formulation.”
as §1, with “Compound 5 (1” for “Compound 1 (0.5”, “mM histidine buffer (1 mg/mL)” for “mM NaOH”, “to aluminium” for “to aluminum”

[2] = Phosphate desorption and organic solvent extraction from aluminum hydroxide, HPLC; format: physicochemical
Procedure: An organic solvent extraction method was used to evaluate whether compound 1 was covalently bound to aluminum hydroxide. The formulation was prepared as follows: 2 mg/ml aluminum hydroxide, 100 μg/dose compound 1, 10 mM histidine buffer) and the pH was adjusted to 9. A control formulation without aluminum hydroxide was also prepared.
One ml of the formulation containing Alum was mixed with 1 ml of KH2PO4 1M pH 9 (0.5M final conc, pH 9) and was left in gentle agitation overnight at 37° C. to allow desorption of compound 1 (compound 5) from the aluminum hydroxide via ligand exchange with the phosphate anions. Organic extraction was then performed: 1 ml of each sample was mixed with 1 ml of n-butanol and vortexed. After the formation of 2 phases, the upper phase (butanol) was recovered, dried with N2 and resuspended in MeOH/10 mM NaOH. HPLC analysis was run both for the formulation supernatants and for the butanol extracted samples (C18 column; 0-100% B in 2 min; A=0.1% TFA in H2O; B=0.1% TFA in ACN). […]

[3] = Confocal microscopy of aluminium hydroxide adjuvant mixed with compound; format: physicochemical; settings: adjuvant 3 mg/ml, compound 0.25 mg/ml
Description: Compound 1 is intrinsically fluorescent.

Solubility = format: physicochemical
[4] = Adsorption to aluminum hydroxide, LC-MS/MS of supernatant; settings: 10 mM histidine buffer pH 6.8; final compound concentration 0.1 mg/mL; 37° C. for 5 hours; 100% minus % unbound
Procedure: The resulting solution was diluted 10-fold with blank histidine buffer to a final compound concentration of 0.1 mg/mL. Diluted solutions were incubated at 37° C. for 5 hours. The samples were centrifuged at 14,000 rpm for 10 minutes to pellet the insoluble. The supernatant (along with an internal standard) was then evaluated by LC-MS/MS using a ballistic gradient (from 5% CH3CN-0.5% formic acid to 95% CH3CN-1.0% formic acid in 3.5 minutes) on a Waters Atlantis dC18 (50 mm×2.1 mm) column at room temperature against a calibration curve prepared at known compound concentrations ranging from 0.005 to 50 μM. The concentration in the supernatant was calculated as % unbound to alum compared to control; the % bound to alum was calculated as 100% minus % unbound.

[5] = test system: serum cytokines (IL-6, mKC, MCP-1); experiment: Serum cytokines 24 hours after immunization; format: in vivo
Procedure: Serum cytokines are measured 24 hours after immunization with compound 6, with or without aluminium hydroxide adjuvant, or with buffer alone. Levels of IL-6 and mKC are both about ˜4-fold higher after administration of compound 6 without adjuvant, and levels of MCP-1 are ˜20-fold higher (compared to vehicle alone). […] Similarly, adsorption to aluminium hydroxide adjuvant decreases both the proportion of CD4+ T-cells which are also CD69+ and the proportion of CD19+ B-cells which are also CD86+, and this effect is seen in both the spleen and in draining lymph nodes. For example, adsorption reduces the proportion of CD86+ B-cells from ˜75% to ˜15%.

[6] = test system: CD4+ T-cells, CD19+ B-cells; experiment: Activation markers on T-cells and B-cells in spleen and draining lymph nodes; format: in vivo
strain NZ98 = experiment: Serum bactericidal antibody (SBA) assay after immunization with 5CVMB; format: in vivo, MenB; settings: compound pre-adsorbed to aluminium hydroxide adjuvant (25 μg or 100 μg) vs adjuvant alone or compound alone
Procedure: The MenB antigens are tested for in vivo immunogenic potency using a serum bactericidal antibody (SBA) assay.

[7] = Muscle levels 24 hours after intramuscular injection; settings: 24 hours after intramuscular injection (100 μg) with protein antigens, Balb/C mice
five different strains = experiment: Strain coverage of sera after immunization with modified 5CVMB; format: in vivo, MenB; settings: compound pre-adsorbed to aluminium hydroxide
Description: 2010 claiming priority from U.S. Ser. No. 61/237,576 (SEQ ID NO: 126 therein).

[8] = in combination with aluminium hydroxide adjuvant
[9] = with aluminium hydroxide adjuvant
[10] = without aluminium hydroxide adjuvant

Cc1ccc2c(c1)nc(N)c1ncc(CCc3ccc(OCCCP(=O)(O)O)cc3C)cc12 [Compound 1, 3-(4-(2-(5-amino-8-methylbenzo[f][1,7]naphthyridin-2-yl)ethyl)-3-methylphenoxy)propylphosphonic acid]
presence of compound in supernatant when aluminum hydroxide included (HPLC) ([1]; pH 6.5 (adjusted with HCl), aluminium hydroxide 2 mg/mL): not present in the supernatant
presence of compound in supernatant when aluminum hydroxide included (HPLC) ([1]; pH 9, 10 mM NaOH, aluminum hydroxide 2 mg/mL): not present in the supernatant
quantity of compound in supernatant of formulation treated with KH2PO4 (desorption by phosphate anions) ([2]; 0.5M KH2PO4 pH 9, overnight at 37° C.): Increased quantities
Concentration ([2]; control/extract: n-butanol extract of control formulation without aluminum hydroxide): 217 ± 1 µg/mL
Concentration ([2]; extaract: n-butanol extract of formulation with alum): 27 ± 1 µg/mL
Concentration ([2]; phosphate supernatant: formulation with alum treated with 0.5M KH2PO4 pH 9 overnight at 37° C.): 59 ± 1 µg/mL
Concentration ([2]; phosphate/extract: n-butanol extract of KH2PO4-treated formulation with alum): 119 ± 1 µg/mL
Concentration ([2]; supernatant control: formulation without aluminum hydroxide): 329 ± 1 µg/mL
Concentration ([2]; supernatant of formulation with 2 mg/ml aluminum hydroxide, 10 mM histidine buffer, pH 9): 5 ± 1 µg/mL
association with aluminium hydroxide adjuvant particles (confocal microscopy) [3]: associates with particles of the insoluble metal salt
solubility in histidine buffer (Solubility): poorly soluble

Cc1ccc2c(c1)nc(N)c1ncc(CCc3ccc(OCCOCCOCCC(F)(F)P(=O)(O)O)cc3C)cc12 [Compound 6, 3-(2-(2-(4-(2-(5-amino-8-methylbenzo[f][1,7]naphthyridin-2-yl)ethyl)-3-methylphenoxy)ethoxy)ethoxy)-1,1-difluoropropylphosphonic acid]
% bound to alum [4]: 98.2%
serum IL-6 level compared to vehicle alone [5, 8]: < 2 fold
serum MCP-1 level compared to vehicle alone [5, 8]: < 2 fold
serum mKC level compared to vehicle alone [5, 8]: < 2 fold
serum IL-6 level compared to vehicle alone ([5]; without adjuvant): ~4 fold
serum MCP-1 level compared to vehicle alone ([5]; without adjuvant): ~20 fold
serum mKC level compared to vehicle alone ([5]; without adjuvant): ~4 fold
proportion of CD86+ B-cells ([6]; adsorbed to aluminium hydroxide adjuvant): ~15%
effect of adsorption on proportion of CD4+ T-cells which are also CD69+ ([6]; adsorbed vs unadsorbed, spleen and draining lymph nodes): decreases
proportion of CD86+ B-cells ([6]; without adsorption to aluminium hydroxide adjuvant): ~75%
bactericidal (SBA) titer against strain NZ98 (strain NZ98): large increase in SBA titer
muscle level of compound [7, 9]: readily detected
muscle level of compound [7, 10]: undetectable

Cc1cc(OCCOCCOCCP(=O)(O)O)ccc1CCc1cnc2c(N)nc3cc(CCC(=O)O)ccc3c2c1 [Compound 20, 3-(5-amino-2-(2-methyl-4-(2-(2-(2-phosphonoethoxy)ethoxy)ethoxy)phenethyl)benzo[f][1,7]naphthyridin-8-yl)propanoic acid]
% bound to alum [4]: 97.0%
strain coverage compared to aluminium hydroxide alone (five different strains): improves the strain coverage
muscle level of compound [7, 9]: readily detected
muscle level of compound [7, 10]: undetectable
